The values below are quoted from earlier work in patent publication US20050137262A1, “Highly concentrated pourable aqueous solutions of potassium ibuprofen, their preparation and their uses” (priority 2003, published 2005).

As to `CC(C)Cc1ccc(C(C)C(=O)[O-])cc1.[K+]` (centres unmarked) [potassium ibuprofen, potassium 2-(4-isobutylphenyl)propionate], the “concentration of dissolved potassium ibuprofen” value (U.S. Pat No. 5,912,011 Table 1, system with 35.2 wt % ibuprofen, 33.3 wt % PEG 600, 7.3 wt % water) is on record as 24.2 wt %. For the same compound, the “maximum concentration of dissolved potassium ibuprofen shown” value (U.S. Pat. No. 6,387,400, polyethylene glycol solvent, less than about 50 mole % of ibuprofen converted to potassium salt) was “about 24.2 wt %”.
